Holding throughout (type): functional, cell-based
One assay relates to A549. Briefly: Compound was tested for antiproliferative activity against human A549 cancer cell lines using MTT assay.
Another assay relates to MKN-45. Nature of the assay: Compound was tested for antiproliferative activity against human MKN45 cancer cell lines.
In the next assay the test system is SK-BR-3. Nature of the assay: Compound was tested for antiproliferative activity against human SK-BR-3 cancer cell lines.

Take `O=C(/C=C/c1ccc(CNC(=O)c2ccc(N3CCN(Cc4cccnc4)CC3)cc2)cc1)NO`: the figures for the IC50 in the assay on A549, in the assay on MKN-45 and in the assay on SK-BR-3 were 1.65 µM, 2.94 µM and 0.27 µM, respectively.
The like results for `O=C(/C=C/c1ccc(CNC(=O)c2ccc(N3CCN(Cc4ccccn4)CC3)cc2)cc1)NO` were, in that order, 12 µM, 38.6 µM and 3.19 µM.
The matching figures for `O=C(/C=C/c1ccc(CNC(=O)c2ccc(N3CCN(Cc4ccncc4)CC3)cc2)cc1)NO`: 3.02 µM, 56.1 µM and 1.72 µM.
The matching figures for `O=C(/C=C/C#Cc1ccc(NS(=O)(=O)c2ccccc2)cc1)NO` [OXAMFLATIN]: 0.84 µM, 1.07 µM and 0.59 µM.
